Target: T1, Wee1 (Homo sapiens, UniProt P30291)
T1 construct: endogenous in cells; host or cells: HeLa
Assay: Cell assay for Wee1 inhibitory activity (cell-based ELISA, phospho-cdc2(Tyr15))
Conditions: Hela cells synchronized using aphidicolin; phosphorylation level of cdc2 (Tyr15) by sandwich ELISA
Text: Cell Assay for Wee1 Inhibitory Activity
Wee1 inhibitory activity can be measured using a cell-based ELISA assay. Hela cells are synchronized using aphidicolin, which blocks the entry of cells into S-phase. Cells in G2-M transition phase are then obtained by releasing the cells from aphidicolin treatment for approximately 7-9 hrs. The phosphorylation level of the Wee1 target cdc2 may then be measured by sandwich ELISA using an anti-cdc2 antibody and an anti-phospho-cdc2(Tyr15) antibody. This cell assay was used to calculate a pIC50 for the compounds described in Examples 2, 3, and 19.

T1 sequence (P30291 whole entry): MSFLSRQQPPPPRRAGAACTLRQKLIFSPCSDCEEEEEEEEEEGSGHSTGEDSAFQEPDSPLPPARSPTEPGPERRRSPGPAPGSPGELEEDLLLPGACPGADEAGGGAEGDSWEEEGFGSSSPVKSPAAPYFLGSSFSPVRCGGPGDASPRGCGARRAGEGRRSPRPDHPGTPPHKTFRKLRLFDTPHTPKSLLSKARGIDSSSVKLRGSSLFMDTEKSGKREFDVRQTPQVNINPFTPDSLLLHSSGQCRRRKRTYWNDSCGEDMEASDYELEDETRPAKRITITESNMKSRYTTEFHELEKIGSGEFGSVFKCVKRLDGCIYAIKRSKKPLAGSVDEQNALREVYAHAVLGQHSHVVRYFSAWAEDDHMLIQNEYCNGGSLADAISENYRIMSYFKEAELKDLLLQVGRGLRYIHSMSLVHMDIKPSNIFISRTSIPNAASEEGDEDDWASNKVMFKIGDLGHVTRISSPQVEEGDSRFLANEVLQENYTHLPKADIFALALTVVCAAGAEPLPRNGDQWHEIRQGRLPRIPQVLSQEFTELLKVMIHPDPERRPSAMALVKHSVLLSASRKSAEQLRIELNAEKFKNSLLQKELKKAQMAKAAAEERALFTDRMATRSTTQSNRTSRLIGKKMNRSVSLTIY

| IC50 | Compound |
| --- | --- |
| ≤ 10 µM | CCN(CC)CCOc1ccc(Nc2ncc(Br)c(Nc3ccccc3OC)n2)cc1 [Example 2, 5-bromo-N^2-(4-{[2-(diethylamino)ethyl]oxy}phenyl)-N^4-[2-(methyloxy)phenyl]-2,4-pyrimidinediamine] |
| ≤ 10 µM | CCC(C)NC(=O)c1ccccc1Nc1nc(Nc2cccc(CCN3CCOCC3)c2)ncc1Br (stereo not drawn) [Example 3, 2-{[5-bromo-2-({3-[2-(4-morpholinyl)ethyl]phenyl}amino)-4-pyrimidinyl]amino}-N-(1-methylpropyl)benzamide] |
| ≤ 10 µM | COc1ccccc1Nc1nc(Nc2cccc(OCCN(C)C)c2)ncc1Br [Example 19, 5-bromo-N^2-(3-{[2-(dimethylamino)ethyl]oxy}phenyl)-N^4-[2-(methyloxy)phenyl]-2,4-pyrimidinediamine] |

Source: patent US20100105674A1, “Chemical Compounds” (priority 2007, published 2010)
